{"source": "patent US20210052566A1", "about": "“METHODS FOR TREATING HEPATITIS B VIRUS (HBV) INFECTION” (INSERM (INSTITUT NATIONAL DE LA SANTÉ ET DE LA RECHERCHE …, priority 2018, published 2021)", "key": {"SRSF10": {"biological_target": "SRSF10 (Homo sapiens, UniProt O75494)", "sequence (O75494 whole entry)": "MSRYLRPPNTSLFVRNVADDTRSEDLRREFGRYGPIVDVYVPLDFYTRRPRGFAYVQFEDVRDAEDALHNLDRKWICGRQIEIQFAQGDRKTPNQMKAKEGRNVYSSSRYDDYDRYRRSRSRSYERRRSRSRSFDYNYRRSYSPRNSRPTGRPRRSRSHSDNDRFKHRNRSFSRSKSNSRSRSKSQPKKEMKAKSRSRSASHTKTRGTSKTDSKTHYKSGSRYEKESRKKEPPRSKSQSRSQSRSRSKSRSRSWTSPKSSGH", "settings": "cited from earlier work"}, "HBV genotype D [1]": {"tested_on": "HBV genotype D", "test": "De novo establishment of HBV infection/cccDNA in naive dHepaRG, genotype D (treatment before and during inoculation)", "type": "cell-based, Hepatitis B virus", "method": "(§1) FIG. 1. Experimental outlines. Treatment schemes: (a) Treatments in pre-infection: dHepaRG cells were treated for 24 h (at day −1) with 100 nM of PreS1 peptide (PreS1-pep) or 10 μM of 1C8, or untreated (NT). At day 0, cells were inoculated with HBV (MOI=250) or with HDV (MOI=25) in the presence of drugs for 24 h. For the tenofovir control (TDF at 10 μM), cells were treated at day 1 and 4 post-infection. Supernatant and cells were harvested at day 7 post-infection. (b) Treatments in post-infection: dHepaRG cells were inoculated with HBV (MOI=250) or with HDV (MOI=25). At days 4, 7 and 9 post infection, cells were treated with TDF 10 μM, lamivudine (3TC) at 10 μM, 1C8 10 μM or untreated (NT). Supernatant and cells were harvested at day 11 postinfection.\n(§2) FIG. 7. Effect of 1C8 on de novo establishment of ccDNA in dHepaRG (genotype D). […] B) HBs and HBe secreted antigens in supernatant were quantiUied by ELISA, whereas HBV DNA contained in virions was quantified by qPCR after viral nucleic acid extraction from supernatant. […] Statistics were done by two-tailed Mann-Whitney test, with following signiUicativity: *P<0.05, **P<0.01, ***P<0.001, ****P<0.0001. nd=not determined.\nHuman liver progenitor HepaRG cells were cultured in Williams medium (ThermoFisher) supplemented with 10% of FBS (Perbio), Penicillin/Streptomycin (500 U/mL), glutamine (2 mM), hydrocortisone Upjohn (2.5 mg/L; Serb laboratory), insulin (5 mg/L; Sigma Aldrich). […] The multiplicity of infection (MOI; expressed as virus genome equivalent/cell) is indicated in the figure legends, but was of 100 vge/cell if not precised.\nFrom cell culture supernatants, secreted HBe and HBs antigens were quantified by ELISA, using a chemiluminescence immunoassay kit (Autobio, China) following manufacturer's instructions. […]\nA HBV standard was used for quantification of extracellular viral DNA and RNA. For cccDNA quantification total DNA was digested by T5 exonuclease (New England Biolabs) for 6 hours at 37° C. then submitted to qPCR using Taqman Fast Advanced Master Mix (Life Technologies). […]"}, "HDV genotype 1": {"tested_on": "HDV genotype 1", "test": "Establishment of HDV infection in dHepaRG (treatment 24 h before and during inoculation)", "type": "cell-based, hepatitis delta virus", "settings": "1C8 10 microM, Entry Inh. 100 nM", "method": "as §1, §2"}, "HBV genotype D [2]": {"tested_on": "HBV genotype D", "test": "HBV replication in persistently infected primary human hepatocytes (PHH)", "type": "cell-based, Hepatitis B virus", "settings": "10 microM", "text": "FIG. 9. Effect of 1C8 on persistently infected primary human hepatocytes. Two different batches of PHH from two different donors were used in these experiments (Batch 1: panels A, B, and C; Batch 2: panels D, and E). A) PHH were infected with HBV genotype D at a MOI of 100 vge/cell for 4 days before being treated trice every 2-3 days with indicated molecules at a concentration of 10 microM. B) Intracellular total RNA were extracted from cells and subjected to RT-qPCR to detect HBV pgRNA and total HBV RNA. C) HBs and HBe secreted antigens in supernatant were quantified by ELISA. D) PHH were infected with HBV genotype D at a MOI of 100 vge/cell. 6 days after the infection, cells were treated five times with indicated molecules at a concentration of 10 microM. Supernatant was harvested after each treatment and cells were harvested at day 13 post infection. E) HBe and HBs secreted antigens in supernatant were quantified by ELISA. Results are the mean+SD of n=3 (panels A, B, and C) or n=4 (panels D and E).\nPrimary human hepatocytes (PHH) were freshly prepared from human liver resections obtained from the Centre Léon Bérard (Lyon) with French ministerial authorizations as previously described (Leycluse and Alexandre, 2010). […]\nSecreted HBe and HBs antigens and intracellular HBV RNA were analyzed as described in EXAMPLE 1."}}}
{"smiles": "Cn1ccc(=O)c(C(=O)Nc2nsc3ccc([N+](=O)[O-])cc23)c1", "note": "[1C8, 4-pyridinonebenzisothiazole carboxamide]", "values": [{"measurement": "SRSF10 phosphorylation at serine 133", "setting": "SRSF10", "result": "inhibit SRSF10 phosphorylation at serine 133"}, {"measurement": "inhibition at 10 µM", "setting": "HBV genotype D [1]; Hepatitis B virus, dHepaRG treated before and during HBV inoculation, 10 microM", "result": 50, "unit": "%"}, {"measurement": "other viral markers (intracellular RNAs, HBeAg, HBsAg), genotype D", "setting": "HBV genotype D [1]; dHepaRG treated before and during inoculation, 10 microM", "result": "also reduced"}, {"measurement": "inhibition of cccDNA establishment compared with controls (entry inhibitor, TDF)", "setting": "HBV genotype D [1]; dHepaRG treated before and during inoculation, 1C8 and TDF 10 microM, Entry Inh. 100 nM, stated for genotypes D and C together", "result": "lower than that obtained with an entry inhibitor, but higher than that obtained with a NUC"}, {"measurement": "block of the establishment of HDV infections", "setting": "HDV genotype 1", "result": "unable to block"}, {"measurement": "amount of intracellular viral RNAs (total and pgRNA)", "setting": "HBV genotype D [2]", "result": "significant reduction"}, {"measurement": "decrease of secreted viral antigens HBe and HBs (viral replication)", "setting": "HBV genotype D [2]; two donors, MOI 100 vge/cell", "result": "> 60", "unit": "%"}]}
